Test results as given in ChEMBL document CHEMBL4251692, “Dual GSK-3β/AChE Inhibitors as a New Strategy for Multitargeting Anti-Alzheimer's Disease Drug Discovery” (ACS Med Chem Lett, 2018).
Activity calls are given as the source filed them. The rule behind the calls is not given here.

Tests used:
Cholinesterase [1] = biological target: Cholinesterase (Homo sapiens, UniProt P06276); assay: Inhibition of human BuChE using butyrylthiocholine iodide as substrate incubated for 20 mins followed by substrate addition measured after 2 mins by Ellman's method
Cholinesterase (Homo sapiens, UniProt P06276), sequence (P06276 whole entry): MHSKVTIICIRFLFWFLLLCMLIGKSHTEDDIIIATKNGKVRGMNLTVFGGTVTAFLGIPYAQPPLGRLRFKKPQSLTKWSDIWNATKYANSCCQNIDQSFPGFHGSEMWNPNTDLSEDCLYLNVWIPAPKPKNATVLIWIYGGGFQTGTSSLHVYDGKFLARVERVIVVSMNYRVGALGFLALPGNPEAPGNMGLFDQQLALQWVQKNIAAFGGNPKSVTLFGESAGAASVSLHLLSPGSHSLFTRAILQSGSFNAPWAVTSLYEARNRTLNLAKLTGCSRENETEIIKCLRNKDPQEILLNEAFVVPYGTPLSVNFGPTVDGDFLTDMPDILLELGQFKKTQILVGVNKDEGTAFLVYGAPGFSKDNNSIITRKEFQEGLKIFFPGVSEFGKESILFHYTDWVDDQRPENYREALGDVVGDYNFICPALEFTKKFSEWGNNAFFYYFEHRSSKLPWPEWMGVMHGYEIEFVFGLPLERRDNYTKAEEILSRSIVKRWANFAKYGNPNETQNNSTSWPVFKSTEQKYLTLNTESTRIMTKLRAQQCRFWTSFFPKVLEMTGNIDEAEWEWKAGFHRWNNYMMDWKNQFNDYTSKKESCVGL

Acetylcholinesterase [2] = biological target: T1, Acetylcholinesterase (Homo sapiens, UniProt P22303); assay: Inhibition of human AChE using acetylthiocholine iodide as substrate incubated for 20 mins followed by substrate addition measured after 2 mins by Ellman's method
T1 sequence (P22303 whole entry): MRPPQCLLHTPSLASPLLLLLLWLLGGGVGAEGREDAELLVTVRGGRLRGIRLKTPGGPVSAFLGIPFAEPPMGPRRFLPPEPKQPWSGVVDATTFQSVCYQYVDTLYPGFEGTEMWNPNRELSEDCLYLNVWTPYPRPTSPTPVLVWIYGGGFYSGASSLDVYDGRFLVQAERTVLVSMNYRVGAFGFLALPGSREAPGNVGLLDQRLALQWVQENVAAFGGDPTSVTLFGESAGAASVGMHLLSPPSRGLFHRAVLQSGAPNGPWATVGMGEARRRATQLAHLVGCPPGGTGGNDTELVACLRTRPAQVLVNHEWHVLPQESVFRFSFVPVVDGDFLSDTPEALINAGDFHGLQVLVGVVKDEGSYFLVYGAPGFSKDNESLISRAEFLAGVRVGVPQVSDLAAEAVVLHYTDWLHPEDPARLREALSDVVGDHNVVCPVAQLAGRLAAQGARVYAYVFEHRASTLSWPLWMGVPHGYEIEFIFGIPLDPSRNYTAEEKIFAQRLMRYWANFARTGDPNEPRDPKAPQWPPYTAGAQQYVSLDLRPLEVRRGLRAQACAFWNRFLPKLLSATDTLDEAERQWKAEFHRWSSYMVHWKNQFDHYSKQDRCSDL

[3] = biological target: Glycogen synthase kinase-3 beta (Homo sapiens, UniProt P49841); assay: Inhibition of recombinant human full length N-terminal GST-tagged GSK-3beta expressed in Sf9 insect cells using prephosphorylated polypeptide as substrate after 30 mins by kinase-Glo reagent based luminescence assay
Glycogen synthase kinase-3 beta, sequence (P49841 whole entry): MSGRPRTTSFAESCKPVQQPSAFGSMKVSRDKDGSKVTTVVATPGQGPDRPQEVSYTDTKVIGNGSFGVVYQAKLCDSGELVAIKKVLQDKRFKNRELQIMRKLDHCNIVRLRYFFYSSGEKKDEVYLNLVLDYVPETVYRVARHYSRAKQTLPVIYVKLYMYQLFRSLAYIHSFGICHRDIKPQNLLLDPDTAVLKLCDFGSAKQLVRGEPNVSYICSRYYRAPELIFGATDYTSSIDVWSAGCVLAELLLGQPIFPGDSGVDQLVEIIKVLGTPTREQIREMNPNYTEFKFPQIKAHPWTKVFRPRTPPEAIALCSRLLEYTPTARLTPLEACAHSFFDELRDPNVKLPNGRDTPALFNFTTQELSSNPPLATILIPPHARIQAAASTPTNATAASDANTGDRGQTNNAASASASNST

SH-SY5Y = assay: Cytotoxicity against human SH-SY5Y cells assessed as reduction in cell viability after 48 hrs by MTT assay; type: cell-based
Mus musculus = assay: Cognition enhancing effect in scopolamine-induced ICR mouse assessed as decrease in distance to target at 15 mg/kg, po administered 30 mins prior to scopolamine injection for 10 consecutive days followed by testing on day 11 post 30 mins scopolamine treatment by Morris water maze test; type: functional, organism-based
Homo sapiens = organism: Homo sapiens; assay: Selectivity index, ratio of IC50 for human AChE to IC50 for human BuChE
Cholinesterase [4] = biological target: Cholinesterase (Equus caballus, UniProt P81908); assay: Inhibition of horse serum BuChE using butyrylthiocholine iodide as substrate incubated for 5 mins followed by substrate addition measured after 2 mins by Ellman's method
Cholinesterase (Equus caballus, UniProt P81908), sequence (P81908 whole entry): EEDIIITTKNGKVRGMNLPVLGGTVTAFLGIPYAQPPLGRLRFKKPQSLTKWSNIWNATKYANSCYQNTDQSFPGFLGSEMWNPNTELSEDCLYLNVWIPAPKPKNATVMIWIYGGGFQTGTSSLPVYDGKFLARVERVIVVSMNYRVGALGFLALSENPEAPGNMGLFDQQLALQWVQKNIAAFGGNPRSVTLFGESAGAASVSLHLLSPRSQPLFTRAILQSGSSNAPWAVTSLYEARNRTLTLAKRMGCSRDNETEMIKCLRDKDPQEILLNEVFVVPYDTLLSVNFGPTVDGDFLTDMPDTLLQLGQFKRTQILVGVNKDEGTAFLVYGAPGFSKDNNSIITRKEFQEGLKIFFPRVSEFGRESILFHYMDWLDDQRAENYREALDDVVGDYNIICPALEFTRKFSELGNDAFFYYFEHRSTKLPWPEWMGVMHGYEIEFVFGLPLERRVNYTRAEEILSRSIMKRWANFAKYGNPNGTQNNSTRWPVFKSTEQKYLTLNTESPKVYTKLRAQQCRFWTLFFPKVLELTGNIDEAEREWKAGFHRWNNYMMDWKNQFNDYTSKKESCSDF

HepG2 = assay: Cytotoxicity against human HepG2 cells assessed as reduction in cell viability after 24 hrs by MTT assay; type: cell-based; settings: HepG2, 24 h
Acetylcholinesterase [5] = biological target: T1, Acetylcholinesterase; assay: Mixed/non-competitive inhibition of human AChE using varying levels of acetylthiocholine iodide as substrate at 1 to 20 nM incubated for 20 mins by Lineweaver-Burk plot analysis
[6] = biological target: Glycogen synthase kinase-3 beta (Mus musculus) (UniProt Q9WV60); assay: Inhibition of GSK-3beta in mouse N2A cells assessed as reduction in tau hyperphosphorylation at Ser396 residues at 10 uM after 6 hrs by Western blot analysis; type: cell-based
Glycogen synthase kinase-3 beta (Mus musculus), sequence (Q9WV60 whole entry, looked up): as the sequence (P49841 whole entry) above, with T390P, T392A, A400T, T402A counted along it

N2a = assay: Effect on total tau protein level in mouse N2A cells at 10 to 30 uM after 6 hrs by Western blot analysis; type: cell-based

| Structure (SMILES) | IC50 (Cholinesterase [1]) [nM] | IC50 (Acetylcholinesterase [2]) [nM] | IC50 [3] [nM] | IC50 (SH-SY5Y) [nM] | Activity (Mus musculus) | Ratio IC50 (Homo sapiens) | IC50 (Cholinesterase [4]) [nM] | IC50 (HepG2) [nM] | inhibition (Acetylcholinesterase [5]) | inhibition [6] | Activity (N2a) |
| --- | --- | --- | --- | --- | --- | --- | --- | --- | --- | --- | --- |
| NC(=O)c1sc(-c2ccnc(NC(=O)C3CC3)c2)nc1OCCNc1c2c(nc3ccccc13)CCCC2 | 150 | 300 | 34 | 19000 | – | – | – | – | – | – | – |
| COC(=O)c1sc(-c2ccnc(NC(=O)C3CC3)c2)nc1OCCNc1c2c(nc3ccccc13)CCCC2 | 28 | 130 | 99 | 13000 | Active | 4.6 | – | – | – | – | – |
| COc1ccc2nc3c(c(NCCCNC(=O)c4sc(-c5ccnc(NC(=O)C6CC6)c5)nc4OC)c2c1)CCCC3 | – | 38 | 65 | 2900 | – | – | 2300 | – | – | – | – |
| COc1ccc2nc3c(c(NCCNC(=O)c4sc(-c5ccnc(NC(=O)C6CC6)c5)nc4OC)c2c1)CCCC3 | – | 23 | 83 | 8900 | – | – | 2100 | – | – | – | – |
| COc1nc(-c2ccnc(NC(=O)C3CC3)c2)sc1C(=O)NCCCNc1c2c(nc3ccccc13)CCCC2 | 260 | 6.4 | 66 | 18000 | Active | – | – | 35000 | Active | Active | Non-Toxic |
| COc1nc(-c2ccnc(NC(=O)C3CC3)c2)sc1C(=O)NCCNc1c2c(nc3ccccc13)CCCC2 | 51 | 6.3 | 68 | 6300 | – | – | – | – | – | – | – |
| COc1nc(-c2ccnc(NC(=O)C3CC3)c2)sc1C(=O)NCCNc1c2c(nc3cc(Cl)ccc13)CCCC2 | – | 2.1 | 63 | 2300 | – | – | 410 | – | – | – | – |
| CCOC(=O)c1sc(-c2ccnc(NC(=O)C3CC3)c2)nc1OCCNc1c2c(nc3ccccc13)CCCC2 | 610 | 310 | 180 | 7100 | – | – | – | – | – | – | – |
| O=C(O)c1sc(-c2ccnc(NC(=O)C3CC3)c2)nc1OCCNc1c2c(nc3ccccc13)CCCC2 | 450 | 580 | 270 | 21000 | – | – | – | – | – | – | – |
| COc1nc(-c2ccnc(NC(=O)C3CC3)c2)sc1C(=O)NCCCCCCNc1c2c(nc3ccccc13)CCCC2 | 100 | 22 | 18 | 30000 | Active | – | – | – | – | – | – |
| COc1nc(-c2ccnc(NC(=O)C3CC3)c2)sc1C(=O)NCCCNc1c2c(nc3cc(Cl)ccc13)CCCC2 | – | 3.6 | 98 | 3100 | – | – | 290 | – | – | – | – |
